These results are taken from ChEMBL document CHEMBL1250455, “Further delineation of hydrophobic binding sites in dopamine D(2)/D(3) receptors for N-4 substituents on the piperazine ring of the hybrid template 5/7-{[2-(4-aryl-piperazin-1-yl)-ethyl]-propyl-amino}-5,6,7,8-tetrahydro-naphthalen-2-ol” (Bioorg Med Chem, 2010).

The species named for one experiment is Rattus norvegicus. Kind of experiment: Selectivity ratio for Ki for rat D2 receptor to Ki for rat D3 receptor.
In experiment [1] the target is D(3) dopamine receptor (Rattus norvegicus, UniProt P19020). In words: Displacement of [3H]spiperone from rat D3 receptor expressed in HEK293 cells. In kind it is cell-based. On the technique in general: Loss of bound radioactivity is the signal in a displacement assay; it reports binding, not function.
The target in experiment [2] is D(2) dopamine receptor (Rattus norvegicus, UniProt P61169). In words: Displacement of [3H]spiperone from rat D2 receptor expressed in HEK293 cells. In kind it is cell-based.
The target of experiment [3] is T1, D(2) dopamine receptor (Homo sapiens, UniProt P14416). Kind of experiment: Agonist activity at human dopamine D2 receptor expressed in CHO cells assessed as stimulation of [35S]GTPgammaS binding relative to dopamine. In kind it is functional, cell-based. A general note: GTPγS resists hydrolysis and so accumulates on activated G proteins.
The next experiment is filed under the species Homo sapiens. In words: Selectivity ratio of EC50 for human dopamine D2 receptor to EC50 for human dopamine D3 receptor.
Experiment [4] has as its target T1, D(2) dopamine receptor. Kind of experiment: Agonist activity at human dopamine D2 receptor expressed in CHO cells assessed as stimulation of [35S]GTPgammaS binding. The format is functional, cell-based.
Experiment [5] concerns the target D(3) dopamine receptor (Homo sapiens, UniProt P35462). Kind of experiment: Agonist activity at human dopamine D3 receptor expressed in CHO cells assessed as stimulation of [35S]GTPgammaS binding. In kind it is functional, cell-based.

Sequence of D(2) dopamine receptor (Rattus norvegicus, UniProt P61169) (P61169 whole entry): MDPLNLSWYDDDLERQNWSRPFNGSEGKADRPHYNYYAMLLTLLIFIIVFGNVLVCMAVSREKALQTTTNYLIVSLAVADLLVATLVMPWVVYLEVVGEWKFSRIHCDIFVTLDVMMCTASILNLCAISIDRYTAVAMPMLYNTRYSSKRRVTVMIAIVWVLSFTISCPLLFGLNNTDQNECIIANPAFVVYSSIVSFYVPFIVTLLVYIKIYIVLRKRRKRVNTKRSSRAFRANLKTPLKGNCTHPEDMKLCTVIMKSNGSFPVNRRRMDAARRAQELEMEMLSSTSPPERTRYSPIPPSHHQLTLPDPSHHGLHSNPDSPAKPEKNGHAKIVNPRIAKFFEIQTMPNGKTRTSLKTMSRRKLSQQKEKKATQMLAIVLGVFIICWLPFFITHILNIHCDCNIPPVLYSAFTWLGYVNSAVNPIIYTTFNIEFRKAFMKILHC
T1 sequence (P14416 whole entry): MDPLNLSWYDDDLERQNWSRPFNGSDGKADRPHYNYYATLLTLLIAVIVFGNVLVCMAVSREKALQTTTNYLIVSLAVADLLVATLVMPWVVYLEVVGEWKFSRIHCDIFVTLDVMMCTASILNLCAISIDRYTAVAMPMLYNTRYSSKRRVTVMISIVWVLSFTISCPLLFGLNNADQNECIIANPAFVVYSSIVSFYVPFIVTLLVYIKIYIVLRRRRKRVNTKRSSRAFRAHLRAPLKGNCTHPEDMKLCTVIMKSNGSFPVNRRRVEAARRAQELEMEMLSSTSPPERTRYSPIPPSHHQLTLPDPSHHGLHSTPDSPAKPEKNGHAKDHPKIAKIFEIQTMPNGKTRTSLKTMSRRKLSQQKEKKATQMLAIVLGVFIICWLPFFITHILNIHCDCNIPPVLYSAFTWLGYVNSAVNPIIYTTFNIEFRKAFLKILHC
Sequence of D(3) dopamine receptor (Rattus norvegicus, UniProt P19020) (P19020 whole entry): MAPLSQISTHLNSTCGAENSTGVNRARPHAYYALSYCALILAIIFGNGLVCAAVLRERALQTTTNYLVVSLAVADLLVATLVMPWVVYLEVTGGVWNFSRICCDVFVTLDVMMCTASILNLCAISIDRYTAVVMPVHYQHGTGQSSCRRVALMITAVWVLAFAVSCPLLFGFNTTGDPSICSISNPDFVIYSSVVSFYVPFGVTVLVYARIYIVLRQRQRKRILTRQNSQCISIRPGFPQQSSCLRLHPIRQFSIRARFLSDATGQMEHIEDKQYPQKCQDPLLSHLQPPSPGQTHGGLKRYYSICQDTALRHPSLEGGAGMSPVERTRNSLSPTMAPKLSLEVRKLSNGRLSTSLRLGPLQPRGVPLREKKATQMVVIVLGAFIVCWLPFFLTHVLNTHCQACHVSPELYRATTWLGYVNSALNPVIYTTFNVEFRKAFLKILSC
Sequence of D(3) dopamine receptor (Homo sapiens, UniProt P35462) (P35462 whole entry): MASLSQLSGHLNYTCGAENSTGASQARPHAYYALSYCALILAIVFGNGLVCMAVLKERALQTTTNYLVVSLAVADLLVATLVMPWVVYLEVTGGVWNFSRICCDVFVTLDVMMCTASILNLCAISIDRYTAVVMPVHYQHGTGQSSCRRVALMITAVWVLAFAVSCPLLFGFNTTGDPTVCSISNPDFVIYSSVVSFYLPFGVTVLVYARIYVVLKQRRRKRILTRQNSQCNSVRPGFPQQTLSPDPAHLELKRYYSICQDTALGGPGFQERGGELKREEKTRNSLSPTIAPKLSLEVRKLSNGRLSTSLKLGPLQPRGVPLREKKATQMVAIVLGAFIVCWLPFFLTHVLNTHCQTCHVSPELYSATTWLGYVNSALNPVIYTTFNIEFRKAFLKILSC

The term Ki denotes the equilibrium dissociation constant of an inhibitor or competing ligand from its target. For the compound `CCCN(CCN1CCN(c2ccccn2)CC1)C1CCc2ccc(O)cc2C1` (configuration not stated), in the experiment filed under Rattus norvegicus, the Ratio Ki amounted to 52.6. In addition, the Ki turned out to be 0.00196 µM on D(3) dopamine receptor [1] and 0.103 µM at D(2) dopamine receptor [2].
On the same counts, the results for `CCCN(CCN1CCN(c2ncccn2)CC1)C1CCc2ccc(O)cc2C1` (configuration not stated) are 24.1, 0.00684 µM and 0.165 µM.
Regarding `CCCN(CCN1CCN(c2cccnc2)CC1)C1CCc2ccc(O)cc2C1` (configuration not stated), the Ratio Ki in the experiment filed under Rattus norvegicus turned out to be 7.51. The Ki came out at 0.00289 µM on D(3) dopamine receptor [1] and 0.0217 µM at D(2) dopamine receptor [2].
On the same counts, the results for `CCCN(CCN1CCN(c2ccncc2)CC1)C1CCc2ccc(O)cc2C1` (configuration not stated) are 4.84, 0.0141 µM and 0.0683 µM.
On the same counts, the results for `CCCN(CCN1CCN(c2ccc(I)cc2)CC1)C1CCc2ccc(O)cc2C1` (configuration not stated) are 6.06, 0.00766 µM and 0.0464 µM.
For `CCCN(CCN1CCN(c2nccc3ccccc23)CC1)[C@H]1CCc2nc(N)sc2C1`, the Ratio Ki in the experiment listed under Rattus norvegicus was determined as 121.
A word on the Emax: it is the maximal effect, on the per cent scale that the assay sets. As for `NCCc1ccc(O)c(O)c1`, the maximum response (Emax) on D(2) dopamine receptor [3] was found to be 100%.
With `CCCN(CCN1CCN(c2ccc(-c3cccnc3)cc2)CC1)C1CCc2ccc(O)cc2C1` (racemic), the Ratio Ki in the experiment listed under Rattus norvegicus was determined as 19.6. The Ki on D(3) dopamine receptor [1] is 0.00301 µM; at D(2) dopamine receptor [2] it was 0.0591 µM.
One may read the EC50 as the concentration at which the effect is half-maximal. For the compound `CCCN(CCN1CCN(c2ccc(-c3ccccc3)cc2)CC1)C1CCc2c(O)cccc2C1` (single isomer, unassigned; (-)), the Ratio EC50 in the experiment filed under Homo sapiens is 202. The Ratio Ki in the experiment filed under Rattus norvegicus was 22.7. Also, the Emax at D(2) dopamine receptor [3] came to 71.8%. Besides, the Ki on D(3) dopamine receptor [1] was determined as 0.00236 µM; at D(2) dopamine receptor [2] it was 0.0536 µM. Moreover, the EC50 at D(2) dopamine receptor [4] amounted to 0.0526 µM; on D(3) dopamine receptor [5], 0.00025 µM.
As to `CCCN(CCN1CCN(c2ccc(-c3ccncc3)cc2)CC1)C1CCc2c(O)cccc2C1` (single isomer, unassigned; (-)), the affinity on D(3) dopamine receptor [1], expressed as Ki, was 0.00153 µM.
Regarding `CCCN(CCN1CCN(c2ccc(-c3ccncc3)cc2)CC1)C1CCc2ccc(O)cc2C1` (single isomer, unassigned; (-)), the Ratio Ki in the experiment filed under Rattus norvegicus was determined as 24.6.
With `CCCN(CCN1CCN(c2ccc(-c3ccccc3)cc2)CC1)C1CCc2ccc(O)cc2C1` (stereo in doubt; 8a), the Ki was determined as 0.00522 µM on D(3) dopamine receptor [1] and 0.0641 µM on D(2) dopamine receptor [2].
Consider `CCCN(CCN1CCN(c2ccc(-c3ccncc3)cc2)CC1)C1CCc2ccc(O)cc2C1` (stereo in doubt; 22d) [listing 1 of 2 here], for which the Ki at D(2) dopamine receptor [2] came to 0.0247 µM.
Regarding `CCCN(CCN1CCN(c2ccc(-c3ccncc3)cc2)CC1)C1CCc2ccc(O)cc2C1` (stereo in doubt; 22d) [listing 2 of 2 here], the Ratio Ki in the experiment listed under Rattus norvegicus came out at 32.
Take `CCCN(CCN1CCN(c2ccc(-c3ccccc3)cc2)CC1)C1CCc2ccc(O)cc2C1` (stereo in doubt; (+)-8a) [listing 1 of 2 here]: the Ki at D(3) dopamine receptor [1] was found to be 0.00279 µM; at D(2) dopamine receptor [2], 0.058 µM. Also, the EC50 at D(2) dopamine receptor [4] came out at 0.108 µM; at D(3) dopamine receptor [5], 0.00103 µM.
For `CCCN(CCN1CCN(c2ccc(-c3ccccc3)cc2)CC1)C1CCc2ccc(O)cc2C1` (stereo in doubt; (+)-8a) [listing 2 of 2 here], the Ratio EC50 in the experiment listed under Homo sapiens is 105. Moreover, in the experiment listed under Rattus norvegicus, the Ratio Ki is 20.8. Also, the Emax on D(2) dopamine receptor [3] came out at 42.1%.
In the case of `CCCN(CCC)CCc1cccc2c1CC(=O)N2` [ROPINIROLE], the Emax on D(2) dopamine receptor [3] was determined as 83.9%. For the same compound, the affinity on D(2) dopamine receptor [2] corresponds to a Ki of 2.67 µM.
